Tested on: Caco-2/monocytes co-culture
Assay: Multiplex xMAP cytokine production, Caco-2/monocytes co-culture
Format: cell-based, human
Conditions: 24 h; for EGF level / Eotaxin level / FGF-2 level / FLT-3L level / Fractalkine level / G-CSF level / GM-CSF level / GROa level / IFNa2 level / IFNg level / IL-1RA level / IL-1a level / IL-1b level / IL-2 level / IL-3 level / IL-4 level / IL-5 level / IL-6 level / IL-7 level / IL-8 level / IL-9 level / IL-10 level / IL-12 (p40) level / IL-12 (p70) level / IL-13 level / IL-15 level / IL-17A level / IL-17E/IL-25 level / IL-17F level / IL-18 level / IL-22 level / IL-27 level / IP-10 level / M-GSF level / MCP-1 level / MCP-3 level / MDC level / MIG level / MIP-1a level / MIP-1b level / PDGF-AA level / PDGF-AB/BB level / RANTES level / TGF-a level / TNFa level / TNFb level / VEGFa level / sCD40L level: 2 µM apical, basolateral medium
Description: The co-culture model consisted of immune cells (moDCs or monocytes) lying on the bottom of the culture well, and a Caco-2 polarized monolayer, mimicking intestinal epithelium, on a permeable insert. Immune cells were located on the serosal side of the epithelial barrier. In some inserts Candida albicans was loaded to the apical side of the epithelium, mimicking intestinal lumen colonization with this pathogenic fungus. This co-culture model allows yeast cells to contact only with the apical side of epithelial cells, but not with immune cells. Culture medium, containing cytokines, chemokines, and growth factors, produced by both epithelial and immune cells, was taken from basolateral chambers and analyzed by multiplex xMAP technology after incubation during 24 h when C. albicans cells switched to hyphal form.
For growing cells, mimicking epithelial barriers in vitro, Caco-2 cells were seeded onto 24-well polycarbonate Millicell cell culture inserts (0.4 μm, 0.6 cm^2 surface area) (Millipore, Burlington, MA, USA), precoated with 0.2% bovine gelatin (Sigma-Aldrich), at a density of 2.5 × 10^5 cells/cm^2. The cells were grown for 21 days in a complete DMEM/F12 (1:1) medium with re-feeding every 2–3 days with a fresh complete medium. The integrity of the Caco-2 cell monolayer was checked by measuring the transepithelial electrical resistance (TEER) using a Millicell-ERS Voltohmmeter (Millipore). Only cell monolayers with TEER > 400 Ωcm^2 (after subtracting TEER in blank inserts without Caco-2 cells) were used in transport across epithelial monolayer and cytokine production experiments.
Monocytes and moDCs were seeded into the wells of 48- and 24-well plates in the complete RPMI-1640 medium supplemented with 10% human AB serum (HABS, Capricorn Scientific) without antibiotics 24 h prior to the experiment, and kept in a humidified CO2-incubator (5% CO2, 37 °C). After 24 h, the medium in the wells of the 48-well plate was replaced by fresh complete RPMI-1640 medium with 10% HABS, supplemented with 2 µM of Psd1 for the sample wells or fresh medium alone for the control wells. Medium in the wells of the 24-well plate was replaced by fresh complete RPMI-1640 medium with 10% human serum without antibiotics. Then, Millicell inserts with Caco-2 monolayers with TEER > 400 Ωcm^2 were placed into the wells of the 24-well plate, containing monocytes or moDCs. Wells with Millicell inserts with Caco-2 monolayers without immune cells were used as control wells. Medium in apical chambers of Millicell inserts was replaced by fresh complete RPMI-1640 with 10% human serum medium containing Psd1 at the final concentration of 2 µM or Candida albicans at the concentration of 5 × 10^4 cells/mL or yeast cells together with the pea defensin at the same concentration. Fresh complete RPMI-1640 medium only with 10% human serum and without antibiotics was used in control wells. Plates were kept in CO2-incubator (5% CO2, 37 °C) for another 24 h. Culture supernatants from the wells of the 48-well plate and basolateral chambers of the 24-well plate were collected and stored at −70 °C degrees less than one month prior to the analytes assessment. […]

[1] = Caco-2/monocytes co-culture with C. albicans, 2 μM

Psd1: pea defensin from Pisum sativum (UNIPROT P81929), recombinant peptide overexpressed in Escherichia coli (KTCEHLADTYRGVCFTNASCDDHCKNKAHLISGTCHNWKCFCTQNC; UniProt P81929 1-46, looked up)
EGF level (Caco-2/Mono+Candida+Psd1): 7 pg/mL
Eotaxin level (Caco-2/Mono+Candida+Psd1): 4.44 pg/mL
FGF-2 level (Caco-2/Mono+Candida+Psd1): 47.02 pg/mL
FLT-3L level (Caco-2/Mono+Candida+Psd1): 0.83 pg/mL
Fractalkine level (Caco-2/Mono+Candida+Psd1): 27.26 pg/mL
G-CSF level (Caco-2/Mono+Candida+Psd1): 63.23 pg/mL
GM-CSF level (Caco-2/Mono+Candida+Psd1): 2.65 pg/mL
GROa level (Caco-2/Mono+Candida+Psd1): 1596 pg/mL
IFNa2 level (Caco-2/Mono+Candida+Psd1): 15.36 pg/mL
IFNg level (Caco-2/Mono+Candida+Psd1): <2.23↓ pg/ml
IL-1RA level (Caco-2/Mono+Candida+Psd1): 7.97 pg/mL
IL-1a level (Caco-2/Mono+Candida+Psd1): 29.04 pg/mL
IL-1b level (Caco-2/Mono+Candida+Psd1): 26.83 pg/mL
IL-2 level (Caco-2/Mono+Candida+Psd1): <0.95↓ pg/ml
IL-3 level (Caco-2/Mono+Candida+Psd1): <0.60↓ pg/ml
IL-4 level (Caco-2/Mono+Candida+Psd1): 3.07 pg/mL
IL-5 level (Caco-2/Mono+Candida+Psd1): <0.30↓ pg/ml
IL-6 level (Caco-2/Mono+Candida+Psd1): 631.32 pg/mL
IL-7 level (Caco-2/Mono+Candida+Psd1): <0.38↓ pg/ml
IL-8 level (Caco-2/Mono+Candida+Psd1): 8138 pg/mL
IL-9 level (Caco-2/Mono+Candida+Psd1): 6.07 pg/mL
IL-10 level (Caco-2/Mono+Candida+Psd1): 4.47 pg/mL
IL-12 (p40) level (Caco-2/Mono+Candida+Psd1): 25.99 pg/mL
IL-12 (p70) level (Caco-2/Mono+Candida+Psd1): <1.68↓ pg/ml
IL-13 level (Caco-2/Mono+Candida+Psd1): 25.38 pg/mL
IL-15 level (Caco-2/Mono+Candida+Psd1): 1.44 pg/mL
IL-17A level (Caco-2/Mono+Candida+Psd1): 2.9 pg/mL
IL-17E/IL-25 level (Caco-2/Mono+Candida+Psd1): <18.85↓ pg/ml
IL-17F level (Caco-2/Mono+Candida+Psd1): <19.03↓ pg/ml
IL-18 level (Caco-2/Mono+Candida+Psd1): 3.62 pg/mL
IL-22 level (Caco-2/Mono+Candida+Psd1): 24.13 pg/mL
IL-27 level (Caco-2/Mono+Candida+Psd1): 63.98 pg/mL
IP-10 level (Caco-2/Mono+Candida+Psd1): 35.99 pg/mL
M-GSF level (Caco-2/Mono+Candida+Psd1): 34.31 pg/mL
MCP-1 level (Caco-2/Mono+Candida+Psd1): 9510 pg/mL
MCP-3 level (Caco-2/Mono+Candida+Psd1): 273.49 pg/mL
MDC level (Caco-2/Mono+Candida+Psd1): 1060 pg/mL
MIG level (Caco-2/Mono+Candida+Psd1): 50.41 pg/mL
MIP-1a level (Caco-2/Mono+Candida+Psd1): 22.02 pg/mL
MIP-1b level (Caco-2/Mono+Candida+Psd1): 53.4 pg/mL
PDGF-AA level (Caco-2/Mono+Candida+Psd1): 341.69 pg/mL
PDGF-AB/BB level (Caco-2/Mono+Candida+Psd1): 805.91 pg/mL
RANTES level (Caco-2/Mono+Candida+Psd1): 78.92 pg/mL
TGF-a level (Caco-2/Mono+Candida+Psd1): 2.79 pg/mL
TNFa level (Caco-2/Mono+Candida+Psd1): 33.8 pg/mL
TNFb level (Caco-2/Mono+Candida+Psd1): 11.12 pg/mL
VEGFa level (Caco-2/Mono+Candida+Psd1): 523.74 pg/mL
sCD40L level (Caco-2/Mono+Candida+Psd1): 89.41 pg/mL
EGF level (Caco-2/Mono+Psd1): 9.18 pg/mL
Eotaxin level (Caco-2/Mono+Psd1): 4.17 pg/mL
FGF-2 level (Caco-2/Mono+Psd1): 43.83 pg/mL
FLT-3L level (Caco-2/Mono+Psd1): 1.29 pg/mL
Fractalkine level (Caco-2/Mono+Psd1): 29.68 pg/mL
G-CSF level (Caco-2/Mono+Psd1): 80.21 pg/mL
GM-CSF level (Caco-2/Mono+Psd1): 4.74 pg/mL
GROa level (Caco-2/Mono+Psd1): 1849 pg/mL
IFNa2 level (Caco-2/Mono+Psd1): 18.56 pg/mL
IFNg level (Caco-2/Mono+Psd1): <2.23↓ pg/ml
IL-1RA level (Caco-2/Mono+Psd1): 10.99 pg/mL
IL-1a level (Caco-2/Mono+Psd1): 137.08 pg/mL
IL-1b level (Caco-2/Mono+Psd1): 62.38 pg/mL
IL-2 level (Caco-2/Mono+Psd1): 3.01 pg/mL
IL-3 level (Caco-2/Mono+Psd1): <0.60↓ pg/ml
IL-4 level (Caco-2/Mono+Psd1): 2.67 pg/mL
IL-5 level (Caco-2/Mono+Psd1): <0.30↓ pg/ml
IL-6 level (Caco-2/Mono+Psd1): 830.31 pg/mL
IL-7 level (Caco-2/Mono+Psd1): <0.38↓ pg/ml
IL-8 level (Caco-2/Mono+Psd1): 7130 pg/mL
IL-9 level (Caco-2/Mono+Psd1): 6.07 pg/mL
IL-10 level (Caco-2/Mono+Psd1): 8.82 pg/mL
IL-12 (p40) level (Caco-2/Mono+Psd1): 40.75 pg/mL
IL-12 (p70) level (Caco-2/Mono+Psd1): 2.06 pg/mL
IL-13 level (Caco-2/Mono+Psd1): 23.46 pg/mL
IL-15 level (Caco-2/Mono+Psd1): 2.33 pg/mL
IL-17A level (Caco-2/Mono+Psd1): 3.99 pg/mL
IL-17E/IL-25 level (Caco-2/Mono+Psd1): <18.85↓ pg/ml
IL-17F level (Caco-2/Mono+Psd1): <19.03↓ pg/ml
IL-18 level (Caco-2/Mono+Psd1): 5.64 pg/mL
IL-22 level (Caco-2/Mono+Psd1): 18.63 pg/mL
IL-27 level (Caco-2/Mono+Psd1): 76.02 pg/mL
IP-10 level (Caco-2/Mono+Psd1): 70.11 pg/mL
M-GSF level (Caco-2/Mono+Psd1): 34.31 pg/mL
MCP-1 level (Caco-2/Mono+Psd1): 9656 pg/mL
MCP-3 level (Caco-2/Mono+Psd1): 354.38 pg/mL
MDC level (Caco-2/Mono+Psd1): 1230 pg/mL
MIG level (Caco-2/Mono+Psd1): 129.1 pg/mL
MIP-1a level (Caco-2/Mono+Psd1): 26.21 pg/mL
MIP-1b level (Caco-2/Mono+Psd1): 45.94 pg/mL
PDGF-AA level (Caco-2/Mono+Psd1): 357.15 pg/mL
PDGF-AB/BB level (Caco-2/Mono+Psd1): 985.45 pg/mL
RANTES level (Caco-2/Mono+Psd1): 123.08 pg/mL
TGF-a level (Caco-2/Mono+Psd1): 4.39 pg/mL
TNFa level (Caco-2/Mono+Psd1): 44.58 pg/mL
TNFb level (Caco-2/Mono+Psd1): 10.19 pg/mL
VEGFa level (Caco-2/Mono+Psd1): 384.49 pg/mL
sCD40L level (Caco-2/Mono+Psd1): 94.06 pg/mL
production of IL-4 [1]: increased the production
production of IL-8/CXCL8, IL-12, TNFα, G-CSF, and GM-CSF [1]: decreased inhibiting action of pathogenic fungus
production of IL-22 [1]: statistically significantly (p < 0.05) increased
production of MIG/CXCL9 [1]: decreased the production
production of IL-2, IL-10, MDC and IL-17 (Caco-2/monocytes co-culture, 2 μM apical, no Candida): statistically significant increase

Reference: article PMC10178127, “Immunomodulatory Effects of the Pea Defensin Psd1 in the Caco-2/Immune Cells Co-Culture upon Candida albicans Infection” (International Journal of Molecular Sciences, 2023)
